# From patent US8993756B2 (Merck Sharp & Dohme Corp., priority 2011, dated 2015)
# What was measured:
# JAK3 = JAK3 (Homo sapiens (Human), UniProt P52333); assay: Jak Biochemical HTRF Assay (JAK3); details: recombinant GST-tagged catalytic domain, [ATP] 2.9 μM
# JAK2 = JAK2 (Homo sapiens (Human), UniProt O60674); assay: Jak Biochemical HTRF Assay (JAK2); details: recombinant GST-tagged catalytic domain, [ATP] 8.5 μM
# Sequence of JAK2 (O60674 849-1124): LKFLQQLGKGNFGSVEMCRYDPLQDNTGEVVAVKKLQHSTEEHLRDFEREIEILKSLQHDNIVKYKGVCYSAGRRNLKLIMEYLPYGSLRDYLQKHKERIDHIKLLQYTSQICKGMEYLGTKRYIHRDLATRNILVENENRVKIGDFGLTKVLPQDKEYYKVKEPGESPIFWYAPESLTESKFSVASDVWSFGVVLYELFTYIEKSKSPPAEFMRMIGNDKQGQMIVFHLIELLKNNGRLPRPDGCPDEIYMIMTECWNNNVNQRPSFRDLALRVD
# Sequence of JAK3 (P52333 822-1111): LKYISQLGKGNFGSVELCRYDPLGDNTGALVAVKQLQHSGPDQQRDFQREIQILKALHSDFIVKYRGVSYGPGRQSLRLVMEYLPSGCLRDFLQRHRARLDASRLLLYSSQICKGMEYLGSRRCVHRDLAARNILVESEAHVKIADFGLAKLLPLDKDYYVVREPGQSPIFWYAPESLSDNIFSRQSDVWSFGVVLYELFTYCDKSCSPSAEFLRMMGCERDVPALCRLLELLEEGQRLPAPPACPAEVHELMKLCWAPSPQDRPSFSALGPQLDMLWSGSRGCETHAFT
SMILES,IC50 (JAK3) [nM],IC50 (JAK2) [nM],IC50 (JAK3; given as range class) [nM],IC50 (JAK2; given as range class) [nM]
"C=C(C)C(=O)Nc1cc(-c2ncnc3[nH]cc(C(=O)OCC)c23)ccc1CO [Example 4-25, ethyl 4-{4-(hydroxymethyl)-3-[(2-methylacryloyl)amino]phenyl}-7H-pyrrolo[2,3-d]pyrimidine-5-carboxylate]",0.11,> 1500,–,–
"C/C=C/C(=O)Nc1cccc(-c2ncnc3[nH]cc(C(=O)OCC)c23)c1 [Example 4-6, ethyl 4-{3-[(2E)-but-2-enoylamino]phenyl}-7H-pyrrolo[2,3-d]pyrimidine-5-carboxylate]",1.6,483,–,–
"CCOC(=O)c1c[nH]c2ncnc(-c3ccc(OC)cc3)c12 [Example 1-15, ethyl 4-(4-methoxyphenyl)-7H-pyrrolo[2,3-d]pyrimidine-5-carboxylate]",5.7,134,–,–
"CC/C=C(\C)C(=O)Nc1cccc(-c2ncnc3[nH]cc(C(=O)OCC)c23)c1 [Example 5-25, ethyl 4-(3-{[(2E)-2-methylpent-2-enoyl]amino}phenyl)-7H-pyrrolo[2,3-d]pyrimidine-5-carboxylate]",–,–,10 to 500,> 500
"CCOC(=O)c1c[nH]c2ncnc(-c3ccc4nnn(C)c4c3)c12 [Example 1-67, ethyl 4-(1-methyl-1H-benzotriazol-6-yl)-7H-pyrrolo[2,3-d]pyrimidine-5-carboxylate]",–,–,10 to 500,> 500
"C=CC(=O)Nc1cc(-c2ncnc3[nH]cc(C(=O)OCC)c23)ccc1C [Example 4-11, ethyl 4-[3-(acryloylamino)-4-methylphenyl]-7H-pyrrolo[2,3-d]pyrimidine-5-carboxylate]",0.033,> 1500,–,–
"COc1cccc(-c2ncnc3[nH]cc(-c4ccccc4OC)c23)c1 [Example 33-4, 5-(2-methoxphenyl)-4-(3-methoxyphenyl)-7H-pyrrolo[2,3-d]pyrimidine]",–,–,10 to 500,10 to 500
"C=C(C)C(=O)Nc1cc(-c2ncnc3[nH]cc(C(=O)OCC)c23)ccc1S(C)(=O)=O [Example 4-29, ethyl 4-{3-[(2-methylacryloyl)amino]-4-(methylsulfonyl)phenyl}-7H-pyrrolo[2,3-d]pyrimidine-5-carboxylate]",0.087,> 1500,–,–
"CCOC(=O)c1c[nH]c2ncnc(-c3ccc(C(=O)N(C)C)cc3)c12 [Example 1-13, ethyl 4-[4-(dimethylcarbamoyl)phenyl]-7H-pyrrolo[2,3-d]pyrimidine-5-carboxylate]",–,–,10 to 500,> 500
"C=C(C)C(=O)Nc1cccc(-c2ncnc3[nH]cc(-c4cccc(F)c4)c23)c1 [Example 20-2, N-{3-[5-(3-fluorophenyl)-7H-pyrrolo[2,3-d]pyrimidin-4-yl]phenyl}-2-methylprop-2-enamide]",0.59,> 1500,–,–
"CCOC(=O)c1c[nH]c2ncnc(-c3ccc(C(F)(F)F)cc3)c12 [Example 1-36, ethyl 4-[4-(trifluoromethyl)phenyl]-7H-pyrrolo[2,3-d]pyrimidine-5-carboxylate]",–,–,10 to 500,> 500
"CCOC(=O)c1c[nH]c2ncnc(-c3cccc(NC(=O)/C=C/c4cccc(OC)c4)c3)c12 [Example 5-24, ethyl 4-(3-{[(2E)-3-(3-methoxyphenyl)prop-2-enoyl]amino}phenyl)-7H-pyrrolo[2,3-d]pyrimidine-5-carboxylate]",–,–,10 to 500,> 500
"C=C(C)C(=O)n1ccc2ccc(-c3ncnc4[nH]cc(C(=O)OCC)c34)cc21 [Example 4-23, ethyl 4-[1-(2-methylacryloyl)-1H-indol-6-yl]-7H-pyrrolo[2,3-d]pyrimidine-5-carboxylate]",0.34,> 1500,–,–
"C=C(C)C(=O)Nc1cccc(-c2ncnc3[nH]cc(-c4nccs4)c23)c1 [Example 31, N-(3-(5-(Thiazol-2-yl)-7H-pyrrolo[2,3-d]pyrimidin-4-yl)phenyl)methacrylamide]",–,–,10 to 500,> 500
